Experimental data: US7550133B2, “Respiratory drug condensation aerosols and methods of making and using them” (Alexza Pharmaceuticals, Inc., priority 2002, dated 2009)

Assays:
[1] = Volatilization Using Stainless Steel Foil; HPLC analysis of the condensation aerosol; format: physicochemical; conditions: for Purity of the aerosol (purity analysis): single drug on stainless steel foil substrate (5 cm^2), film thickness about 0.4-1.2 μm, capacitor charged to 15 V; for Purity of each drug in the aerosol from a mixture of albuterol and flunisolide: about 0.20 mg flunisolide and about 0.16 mg albuterol co-coated on stainless steel foil (5 cm^2), film about 0.64 μm, capacitor 15.5 V
From the text: Strips of clean 304 stainless steel foil (0.0125 cm thick, Thin Metal Sales) having dimensions 1.3 cm by 7.0 cm were dip-coated approximately 4.5 to 5 cm on the strip with an asthma drug solution prepared as described above. The foil was then partially dipped three times into solvent to rinse drug off of the last 2-3 cm of the dipped end of the foil. Alternatively, the drug-coating from this bottom 2-3 cm area was carefully taken off with a razor blade. The final coated area was between 2.0-2.5 cm by 1.3 cm on both sides of the foil, for a total area of between 5.2-6.5 cm^2. Foils were prepared as stated above and then some were extracted with methanol or acetonitrile as standards. The amount of drug was determined from quantitative HPLC analysis. Using the known drug-coated surface area, the thickness was then calculated.
After drying, the drug-coated foil was placed into a volatilization chamber constructed of a Delrin block (the airway) and brass bars, which served as electrodes. The dimensions of the airway were 1.3 cm high by 2.6 cm wide by 8.9 cm long. The drug-coated foil was placed into the volatilization chamber such that the drug-coated section was between the two sets of electrodes. After securing the top of the volatilization chamber, the electrodes were connected to a 1 Farad capacitor (Phoenix Gold). The back of the volatilization chamber was connected to a two micron Teflon® filter (Savillex) and filter housing, which were in turn connected to the house vacuum. Sufficient airflow was initiated (typically 30 L/min=1.5 m/sec), at which point the capacitor was charged with a power supply, typically to between 14-17 Volts.
The circuit was closed with a switch, causing the drug-coated foil to resistively heat to temperatures of about 280-430° C. (as measured with an infrared camera (FLIR Thermacam SC3000)), in about 200 milliseconds. After the drug had vaporized, airflow was stopped and the Teflon® filter was extracted with acetonitrile. Drug extracted from the filter was analyzed generally by HPLC UV absorbance generally at 225 nm using a gradient method aimed at detection of impurities to determine percent purity. Also, the extracted drug was quantified to determine a percent yield, based on the mass of drug initially coated onto the substrate. A percent recovery was determined by quantifying any drug remaining on the substrate and chamber walls, adding this to the quantity of drug recovered in the filter and comparing it to the mass of drug initially coated onto the substrate.

[2] = Volatilization from stainless steel cylinder (flashbar); HPLC analysis of the condensation aerosol; format: physicochemical; conditions: drug dip coated on stainless steel flashbar, capacitors 20.5 volts, heated to about 400° C. within about 200 milliseconds, 15 L/min room air
From the text: A hollow stainless steel cylinder with thin walls, typically 0.12 mm wall thickness, a diameter of 13 mm, and a length of 34 mm was cleaned in dichloromethane, methanol, and acetone, then dried, and fired at least once to remove any residual volatile material and to thermally passivate the stainless steel surface. The substrate was then dip-coated with a drug coating solution (prepared as described above). The dip-coating was done using a computerized dipcoating machine to produce a thin layer of drug on the outside of the substrate surface. The substrate was lowered into the drug solution and then removed from the solvent at a rate of typically 5-25 cm/sec. (To coat larger amounts of material on the substrate, the substrate was removed more rapidly from the solvent or the solution used was more concentrated.) The substrate was then allowed to dry for 30 minutes inside a fume hood. If either dimethylformamide (DMF) or a water mixture was used as a dip-coating solvent, the substrate was vacuum dried inside a desiccator for a minimum of one hour. The drug-coated portion of the cylinder generally has a surface area of 8 cm^2. By assuming a unit density for the drug, the initial drug coating thickness was calculated. The amount of drug coated onto the substrates was determined in the same manner as that described above: the substrates were coated, then extracted with methanol or acetonitrile and analyzed with quantitative HPLC methods, to determine the mass of drug coated onto the substrate.
The drug-coated substrate was placed in a surrounding glass tube connected at the exit end via Tygon® tubing to a filter holder fitted with a Teflon® filter (Savillex). The junction of the tubing and the filter was sealed with paraffin film. The substrate was placed in a fitting for connection to two 1 Farad capacitors wired in parallel and controlled by a high current relay. The capacitors were charged by a separate power source to about 18-22 Volts and most of the power was channeled to the substrate by closing a switch and allowing the capacitors to discharge into the substrate. The substrate was heated to a temperature of between about 300-500° C. in about 100 milliseconds. The heating process was done under an airflow of 15 L/min, which swept the vaporized drug aerosol into a 2 micron Teflon® filter.
After volatilization, the aerosol captured on the filter was recovered for quantification and analysis. The quantity of material recovered in the filter was used to determine a percent yield, based on the mass of drug coated onto the substrate. The material recovered in the filter was also analyzed generally by HPLC UV absorbance at typically 225 nm using a gradient method aimed at detection of impurities, to determine purity of the thermal vapor. Any material deposited on the glass sleeve or remaining on the substrate was also recovered and quantified to determine a percent total recovery ((mass of drug in filter+mass of drug remaining on substrate and glass sleeve)/mass of drug coated onto substrate). For compounds without UV absorption GCMS or LC/MS was used to determine purity and to quantify the recovery. Some samples were further analyzed by LC/MS to confirm the molecular weight of the drug and any degradants.
About 1.2 mg of albuterol was dip coated onto the stainless steel surface of a flashbar apparatus. (The flashbar is a cylinder 3.5 cm long and 1.3 cm in diameter consisting of a hollow tube of 0.005″ thick stainless steel). Brass electrodes were connected to either end of the steel cylinder. The coated flashbar was secured in an electrical mount, which connected to two 1.0 Farad capacitors in parallel. An airway was provided by a 2 cm diameter glass sleeve placed around the flashbar. 15 L/min of room air were pulled by a house vacuum through the vaporization chamber and a filter housing, which contained a two-micron Teflon filter. […]

Molecule | Purity of the aerosol (purity analysis) [1] | Purity of each drug in the aerosol from a mixture of albuterol and flunisolide [1] | Purity of the aerosol (purity analysis by HPLC) [2]
CCCn1c(=O)c2[nH]c(C3CCCC3)nc2n(CCC)c1=O [CPX] | 99.8% |  | 
CC(C)(C)NCC(O)c1ccc(O)c(CO)c1 (centres unmarked) [albuterol] |  | 97.2% | 94.4%
Cn1c(=O)c2[nH]cnc2n(C)c1=O [theophylline] |  |  | about 99.5%
CC1(C)O[C@@H]2C[C@H]3[C@@H]4CCC5=CC(=O)C=C[C@]5(C)[C@@]4(F)[C@@H](O)C[C@]3(C)[C@]2(C(=O)CO)O1 [triamcinolone acetonide] |  |  | about 92.0%

Results, then the molecule that gave them:

Purity of the aerosol (purity analysis) [1] | Purity of each drug in the aerosol from a mixture of albuterol and flunisolide [1] | Purity of the aerosol (purity analysis by HPLC) [2] | Molecule
99.9% |  |  | CC(C)Cn1c(=O)n(C)c(=O)c2[nH]cnc21 [IBMX]
 |  | 70.5% | CCCC1O[C@@H]2C[C@H]3[C@@H]4CCC5=CC(=O)C=C[C@]5(C)[C@H]4[C@@H](O)C[C@]3(C)[C@]2(C(=O)CO)O1 (some centres unmarked) [budesonide]
99.03% |  |  | CC(C)C(=O)OCC(=O)[C@@]12O[C@H](C3CCCCC3)O[C@@H]1C[C@H]1[C@@H]3CCC4=CC(=O)C=C[C@]4(C)[C@H]3[C@@H](O)C[C@@]12C [ciclesonide]
91.6% |  |  | CCC(=O)O[C@]1(C(=O)SCF)[C@H](C)C[C@H]2[C@@H]3C[C@H](F)C4=CC(=O)C=C[C@]4(C)[C@@]3(F)[C@@H](O)C[C@@]21C [fluticasone propionate]
 |  | 99.1% | CC(C)NCC(O)c1cc(O)cc(O)c1 (centres unmarked) [metaproterenol]
 |  | 99.3% | CC(C)(C)NCC(O)c1cc(O)cc(O)c1 (centres unmarked) [terbutaline]
94.9% | 94.5% | 97.6% | flunisolide
